From patent publication US20150087723A1, “MICROBIAL COMPOSITION” (Rohm and Haas Company, priority 2011, published 2015) come the findings set out here.

What all share (type): cell-based
Assay [1] concerns Escherichia coli (10536 strain). Kind of assay: Antimicrobial efficacy in water, 15 seconds contact, mean bacterial survival NMBS by colony count. On the procedure: An overnight culture of Escherichia coli (10536 strain) was prepared in 50 ml total volume of TSB broth, grown for ca. 18 hrs at 37° C. and shaken at 150 rpm. 1 ml of this overnight E. coli culture was transferred to 50 ml of fresh TSB broth and incubated at 37° C. at 150 rpm for ca. 4 hours. […] This bacterial stock was used for assaying against antimicrobial actives (in triplicate).
The following assay describes the testing of 8 materials using 6 dilutions across half of a 96-well micro litre plate (MTP). Using this approach it is possible to assay 16 actives (without replicates) with, one full dilution plate, replicating this set up in two halves of the plate columns, 1-6 and 7-12.
IM solutions of the test actives were prepared in dimethylsulphoxide (DMSO).
Aliquots (270 μl) of the materials at 1.11 times the final concentration were dispensed into the wells of the MTP along one column (A1-H1). This MTP was labeled as the “Screening plate”.
In another MTP, labeled as the “Dilution plate”, 270 μl of D/E neutralising solution from DIFCO Composition was added to column 1. The composition of the neutralising solution was as follows: pancreatic digest of casein, 5.0 g/L; Yeast Extract, 2.5 g/L; Dextrose, 10 g/L, sodium thioglycollate, 1.0 g/L, sodium thiosulphate, 6.0 g/L; sodium bisulphite, 2.5 g/L; Polysorbate 80, 5.0 g/L; lecithin 7.0 g/L; bromocresol purple, 0.02 g/L with a pH is the range 7.6±0.2.
270 μl of tryptone diluent solution was added to all the remaining wells of the Dilution MTP (columns 2-6).
Bacterial stock (30 μl) was then added to the prepared 270 μl of the solution of actives in the Screening Plate and mixed, using a multichannel pipette with 8 tips to aspirate and dispense the same volume of bacterial stock in parallel to 8 wells in rows A-H. After a contact time of 15 seconds, the mixtures were quenched by transferring 30 μl volumes of the mixtures into the 270 μl D/E neutralising solution in the prepared dilution plate, using aspiration to mix. After exactly 5 minutes in the D/E neutralising solution, 30 μl volumes were transferred from column 1 to column 2 of the Dilution MTP and mixed, before transferring further 30 μl volumes from column 2 into column 3. This process was repeated serially diluting the bacteria across the plate to column 6.
30 μl volumes from each well in the Dilution MTP were transferred onto pre-labeled segment of Tryptone Soya Agar (TSA) plates starting from the lowest bacterial concentration (highest dilution, column 6) to the highest bacterial concentration (column 1). The TSA plates were allowed to stand for ca. 2 hours so that the 30 μl inocula spots could dry and the plates were then inverted and incubated overnight at 37° C. before enumerating the bacterial colonies at the labeled dilutions to determine the effects of the actives on bacterial growth.
Mean bacterial survival numbers NMBS (expressed in Log CFU/ml) are obtained by first determining the segment of the TSA plate where the number of bacterial colonies is countable. From the colony number in this segment, NMBS is calculated by the formula: […]
Here, Ncol is the colony count, and DF is the dilution factor taken from the MTP-well corresponding to the TSA plate segment (i.e. DF may range from 1 for the quench, to 6 for the highest dilution).

Assay [2] concerns Staphylococcus aureus (10788 strain). The assay is described as above.
Assay [3] concerns Escherichia coli (E. coli—ATCC #10536). Kind of assay: Automated assessment of efficacy in model surfactant base (2.85% sodium cocoyl glycinate + 1.85% sodium lauroamphoacetate, pH 10), 15 seconds exposure, OD450/OD590 readout. The following applies: for MBC: Escherichia coli, ATCC10536, 15 s; for No. of replicates showing growth (out of 4) / Δ OD 450 nm = OD450 (time = 16 hours) - OD450 (time zero), Mean / Δ OD 590 nm OD590 (time = 16 hours) - OD590 (time zero), Mean: model surfactant solution. On the procedure: Solutions were prepared such that the concentrations of the surfactant components and test actives were 1.1×x the final desired concentration in order to allow for dilution with the bacterial inoculum in the test. The solutions were manually adjusted to pH 10.0 by drop wise addition of sodium hydroxide solution, as measured with a phi meter at ambient temperature.
Tests were conducted using standard microtiter plate assays using an automated liquid handling system, 270 μl of the surfactant test solution was pipetted into each well of the microtitre plate and 30 μl of the bacterial suspension was then added. After exactly 15 seconds of bacterial exposure, a 30 μl volume of bacterial cells was withdrawn and transferred to 270 μl of D/E quench solution. After 5 minutes in the D/E quench, the optical density (OD) was measured for each plate in turn at two specific wavelengths (450 nm and 590 nm). These provide a dual check of antimicrobial activity, as the OD450 reading is specific for the yellow colour of D/E quench when bacterial growth is observed, whereas OD590 is specific for the initial purple colour of the D/E quench which is retained if no bacterial growth is observed. After the time zero OD measurements, plates were then incubated at 37° C. overnight (16 hours) before repeating the OD measurements. Delta OD values were calculated by subtracting […] the initial value at time zero. Bacterial growth is observed as an increase in OD450 and a decrease in ΔOD590. To identify antibacterially efficacious systems (those preventing appreciable bacterial growth after incubation), the following threshold changes in OD readings have been adopted: if (1), OD450 increases by less than 0.2 absorbance unit on incubation and (2). OD590 decreases by less than 0.35 unit on incubation. Conversely, where OD450 increases by more than 0.2 AU and OD590 decreases by more than 0.35 unit after incubation, corresponding to a colour shift from purple to yellow, the test system allows bacterial growth and is not deemed efficacious. Four replicate measurements in the same plate have been made for each test system. The number of replicate wells showing either bacterial growth or no growth is also readily assessed by eye by following the colour change.
Dose responses for individual components and binary mixtures of actives at a used concentration ratio were generated by sequential dilution of liquors with further surfactant solution to obtain a series of endpoints.
In some selected cases, the combinations were also tested at the weight ratio 1:1.

Assay [4] shares this test system. The assay is described as follows: Synergy test: high resolution MBC microtiter plate assay, phosphate buffer containing 35% dipropylene glycol, 15 seconds contact. Conditions: E. coli 10536; for SI (Synergy Index = Qa/QA + Qb/QB): at Qa and Qb, <1 synergy, 1 additivity, >1 antagonism. The source says:
One measure of synergy is -the industrially accepted method described by Kull, F. C.; Eisman, P. C.; Sylwestrowicz, H. D. and Mayer, R. L., in Applied Microbiology 9:538-541 (1961), using the ratio determined by the formula:
Qa/QA+Qb/QB=Synergy Index (“SI”)
wherein: QA=concentration of compound A (first component) in percent, acting alone, which produced an end point (MBC of Compound A). Qa =concentration of compound A in percent, in the mixture, which produced an end point. QB=concentration of compound B (second component) in percent, acting alone, which produced an end point (MBC of Compound B). Qb=concentration of compound B in percent, in the mixture, which produced an end point.
When the sum of Qa/QA and Qb/QB is greater than one, antagonism is indicated. […] The lower the SI, the greater is the synergy shown by that particular mixture. The minimum biocidal concentration (MBC) of a microbicide is the lowest concentration tested under a specific set of conditions that provides complete kill of the tested microorganisms.
Synergy tests were-conducted using standard microtiter plate assays with, phosphate buffer containing 35% dipropylene glycol (DPG). In this method, a wide range of combinations of chemicals was tested by conducting high resolution MBC assays of Component (A) in the presence of various concentrations of Component (B). High resolution MBCs were determined by adding varying amounts of microbicide to one column of a microtiter plate and doing subsequent ten-fold dilutions using an automated liquid handling system to obtain a series of closely spaced endpoints. The MBC plate was inoculated one column at a time with the test microorganism. An aliquot of the inoculated well was transferred at 15 seconds to a plate containing a neutralizing agent (D/E Neutralizing Broth), mixed and held for 5 minutes before being transferred to a growth plate containing trypticase soy broth (TSB). The TSB plate was incubated at 37° C. and read for the presence/absence of growth at 24 hours. The lowest level tested that provided complete kill (as evidenced by no growth in the microtitre plate) of the test organisms in 15 seconds is the minimum biocidal concentration (MBC).
The synergy of the combinations of the present invention was determined against a bacterium, Escherichia coli (E. coli—ATCC #10536), at a concentration of approximately 1×10^8 bacteria per mL. This microorganism is representative of natural contaminants in many consumer and industrial applications.

Setting [5] is: in 2.85% sodium cocoyl glycinate + 1.85% sodium lauroamphoacetate solution at pH 10, E. coli, read-out: MBC (% w/v).

The structures appear in SMILES notation. Several values for one entry are separate records, joined by “and”; a condition that tells them apart may be missing. Equal entries are not always repeated. Where two headings read alike, the source gives them in different places. A value given as a limit tells only on which side of the number the result lay.

Consider `CC=Cc1ccccc1O` [2-propenylphenol], for which the “Log reduction E. coli ATCC 10536” value in assay [1] (component alone at 0.05% w/v) is 1.27; in assay [1] (component alone at 0.1% w/v), 1.86. The “Log reduction S. aureus ATCC 6538” value was −0.18 in assay [2] (component alone at 0.05% w/v) and 1.92 in assay [2] (component alone at 0.1% w/v).
For the compound `CCC(C)c1ccc(O)cc1` (stereo not drawn) [4-sec-butylphenol], the MBC in assay [3] (setting [5]) is more than 2000 µg/mL. The “No. of replicates showing growth (out of 4)” value in assay [3] (component alone at 0.125% w/v), in assay [3] (component alone at 0.175% w/v), in assay [3] (component alone at 0.2% w/v) and in assay [3] (component alone at […] w/v) was 4 out of 4 throughout. For the same compound, the “Δ OD 450 nm = OD450 (time = 16 hours) - OD450 (time zero), Mean” value (“Δ OD 450 nm = OD450 (time = 16 hours)” below) in assay [3] (component alone at 0.125% w/v) is reported as −0.56; in assay [3] (component alone at 0.175% w/v), −0.54; in assay [3] (component alone at 0.2% w/v), −0.56; in assay [3] (component alone at […] w/v), −0.53. For the same compound, the “Δ OD 590 nm OD590 (time = 16 hours) - OD590 (time zero), Mean” value (shortened to “Δ OD 590 nm OD590 (time = 16 hours)”) is 0.60 in assay [3] (component alone at 0.125% w/v), 0.59 in assay [3] (component alone at 0.175% w/v), 0.59 in assay [3] (component alone at 0.2% w/v) and 0.60 in assay [3] (component alone at […] w/v). Moreover, the “SI (Synergy Index = Qa/QA + Qb/QB)” value in assay [4] stood at 1.00. Further, the “Qa: MBC of the first component (A) acting alone (QA)” value in assay [4] (component alone (Qb = 0), complete kill in 15 seconds) was 0.2 weight %.
For the compound `Cc1ccc(C(C)C)cc1O` [5-isopropyl-2-methylphenol], the MBC in assay [3] (pH 10, read-out: MBC (% w/v)) was more than 2000 µg/mL. Further, in assay [3] (component alone at 0.1% w/v), the “No. of replicates showing growth (out of 4)” value is given as 4 out of 4; the “Δ OD 450 nm = OD450 (time = 16 hours)” value is listed as −0.52; the “Δ OD 590 nm OD590 (time = 16 hours)” value is listed as 0.62. Also, in assay [3] (component alone at 0.2% w/v), the “No. of replicates showing growth (out of 4)” value is reported as 4 out of 4; the “Δ OD 450 nm = OD450 (time = 16 hours)” value was −0.52; the “Δ OD 590 nm OD590 (time = 16 hours)” value turned out to be 0.62. Also, in assay [3] (component alone at […] w/v), the “No. of replicates showing growth (out of 4)” value is recorded as 4 out of 4. Further, the “SI (Synergy Index = Qa/QA + Qb/QB)” value in assay [4] turned out to be 1.00.
In the case of `C/C=C/c1ccccc1O` [(E)-2-(prop-1-enyl)phenol], in assay [3] (pH 10, read-out: MBC (% w/v)), the MBC was more than 2000 µg/mL. For the same compound, the “No. of replicates showing growth (out of 4)” value in assay [3] (component alone at 0.1% w/v), in assay [3] (component alone at 0.2% w/v) and in assay [3] (component alone at […] w/v) was 4 out of 4 throughout. Also, the figures for the “Δ OD 450 nm = OD450 (time = 16 hours)” value in assay [3] (component alone at 0.1% w/v), in assay [3] (component alone at 0.2% w/v) and in assay [3] (component alone at […] w/v) were −0.60, −0.53 and −0.57, respectively. Besides, the “Δ OD 590 nm OD590 (time = 16 hours)” value came to 0.59 in assay [3] (component alone at 0.1% w/v), 0.63 in assay [3] (component alone at 0.2% w/v) and 0.58 in assay [3] (component alone at […] w/v). Also, the “SI (Synergy Index = Qa/QA + Qb/QB)” value in assay [4] was 1.00.
For the compound `CC(C)=CCC/C(C)=C\CO` [cis-3,7-dimethyl-2,6-octadien-1-ol], in assay [3] (setting [5]), the MBC was more than 5000 µg/mL. Further, the “No. of replicates showing growth (out of 4)” value in assay [3] (component alone at 0.2% w/v) is reported as 4 out of 4; in assay [3] (component alone at 0.3% w/v), 4 out of 4; in assay [3] (component alone at 0.4% w/v), 4 out of 4; in assay [3] (component alone at 0.5% w/v) it was 2 out of 4. Besides, the “Δ OD 450 nm = OD450 (time = 16 hours)” value in assay [3] (component alone at 0.2% w/v) is reported as −0.53; in assay [3] (component alone at 0.3% w/v) it was −0.51; in assay [3] (component alone at 0.4% w/v) it was −0.48; in assay [3] (component alone at 0.5% w/v), −0.14. The “Δ OD 590 nm OD590 (time = 16 hours)” value in assay [3] (component alone at 0.2% w/v) came out at 0.60; in assay [3] (component alone at 0.3% w/v), 0.61; in assay [3] (component alone at 0.4% w/v), 0.62; in assay [3] (component alone at 0.5% w/v), 0.40. Moreover, the “SI (Synergy Index = Qa/QA + Qb/QB)” value in assay [4] is listed as 1.00. The “Qb: MBC of the second component (B) acting alone (QB)” value in assay [4] (component alone (Qa = 0), complete kill in 15 seconds) is 0.25 weight % and 0.3 weight % and 0.5 weight %.
